Data on 32 compounds can be found in patent US20080015146A1, “Dpp-IV Inhibitors” (SANTHERA PHARMACEUTICALS (DEUTSCHLAND) AG, priority 2004, published 2008).

The assay concerns the target T1, DPP-IV (Homo sapiens, UniProt P27487).
T1 construct: Soluble human DPP-IV lacking the transmembrane anchor (Gly31-Pro766); Pre-Pro-alpha-mating factor secretion leader (N, cleaved yes); made in house
The experiment in a line: Continuous fluorimetric assay of inhibition of DPP-IV peptidase activity (cleavage of Gly-Pro-AMC). Format: biochemical. To be noted: substrate Gly-Pro-AMC 16 μM, pH 7.4, 25° C., 1% DMSO; assays carried out with human and porcine DPP-IV (comparable activities). The protocol: Inhibition of DPP-IV peptidase activity was monitored with a continuous fluorimetric assay. This assay is based on the cleavage of the substrate Gly-Pro-AMC (Bachem) by DPP-IV, releasing free AMC. The assay is carried out in 96-well microtiterplates. In a total volume of 100 μl compounds are preincubated with […] DPP-IV employing a buffer containing 10 mM Hepes, 150 mM NaCl, 0.005% Tween 20 (pH 7.4). […] The final concentration of DMSO is 1%. The inhibitory potential of the compounds were determined.
Soluble human DPP-IV lacking the transmembrane anchor (Gly31-Pro766) was expressed in a recombinant YEAST-strain as Pre-Pro-alpha-mating fusion. The secreted product (rhuDPP-IV-Gly31-Pro766) was purified from fermentation broth (>90% purity).

Structures are written as SMILES. Counter-ions that a name gives are not always drawn.

T1 sequence (P27487 31-766): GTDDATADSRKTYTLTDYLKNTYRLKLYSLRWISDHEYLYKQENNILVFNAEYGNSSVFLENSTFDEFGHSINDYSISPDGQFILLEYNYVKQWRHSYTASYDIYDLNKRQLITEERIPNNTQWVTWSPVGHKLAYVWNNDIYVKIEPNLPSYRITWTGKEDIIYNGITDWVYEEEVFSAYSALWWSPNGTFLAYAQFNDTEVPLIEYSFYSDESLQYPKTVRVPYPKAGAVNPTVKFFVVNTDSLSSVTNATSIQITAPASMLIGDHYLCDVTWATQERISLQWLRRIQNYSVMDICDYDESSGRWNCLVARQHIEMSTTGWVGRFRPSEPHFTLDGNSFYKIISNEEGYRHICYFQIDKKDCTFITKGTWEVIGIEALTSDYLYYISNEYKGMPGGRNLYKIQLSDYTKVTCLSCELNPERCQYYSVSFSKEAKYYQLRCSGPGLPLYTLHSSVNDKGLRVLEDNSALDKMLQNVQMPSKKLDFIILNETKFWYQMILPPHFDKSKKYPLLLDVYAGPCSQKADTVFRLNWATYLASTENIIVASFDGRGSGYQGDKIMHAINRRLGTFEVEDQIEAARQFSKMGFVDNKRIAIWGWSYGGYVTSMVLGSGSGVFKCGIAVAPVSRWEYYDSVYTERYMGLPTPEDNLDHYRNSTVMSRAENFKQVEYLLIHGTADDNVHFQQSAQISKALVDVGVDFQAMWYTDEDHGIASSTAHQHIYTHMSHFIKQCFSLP

As usually defined, the IC50 is the concentration at which inhibition is half-maximal. A low value points to higher potency. `N[C@@H](CC(=O)N1CCC[C@H]1c1nc(-c2ccccn2)no1)Cc1ccccc1F` [Example 5, (R)-3-Amino-4-(2-fluoro-phenyl)-1-[(S)-2-(3-pyridin-2-yl-[1,2,4]oxadiazol-5-yl)-pyrrolidin-1-yl]-butan-1-one] showed an IC50 below 0.1 µM.

`N[C@@H](CC(=O)N1CC(F)(F)C[C@H]1c1nc(C2CC2)no1)Cc1cc(F)c(F)cc1F` [Example 27, (R)-3-Amino-1-[(S)-2-(3-cyclopropyl-[1,2,4]oxadiazol-5-yl)-4,4-difluoro-pyrrolidin-1-yl]-4-(2,4,5-trifluoro-phenyl)-butan-1-one formate salt] displayed an IC50 below 0.1 µM.

As to `CS(=O)(=O)Nc1ccc(-c2noc([C@@H]3CCCN3C(=O)C[C@H](N)Cc3ccccc3F)n2)cc1` [Example 10, N-[4-(5-{(S)-1-[(R)-3-Amino-4-(2-fluoro-phenyl)-butyryl]-pyrrolidin-2-yl}-[1,2,4]oxadiazol-3-yl)-phenyl]-methanesulphonamide trifluoroacetic acid salt], the IC50 is below 0.1 µM.

In turn, `N[C@@H](CC(=O)N1CCC[C@H]1c1nc(-c2ccccc2)no1)Cc1ccccc1F` [Example 1, (R)-3-Amino-4-(2-fluoro-phenyl)-1-[(S)-2-(3-phenyl-[1,2,4]oxadiazol-5-yl)-pyrrolidin-1-yl]-butan-1-one hydrochloride] registered an IC50 below 0.1 µM.

`N[C@@H](CC(=O)N1CCC[C@H]1c1nc(-c2ccc(F)cc2F)no1)Cc1ccccc1F` [Example 8, (R)-3-Amino-1-{(S)-2-[3-(2,4-difluoro-phenyl)-[1,2,4]oxadiazol-5-yl)-pyrrolidin-1-yl}-4-(2-fluoro-phenyl)-butan-1-one trifluoracetic acid salt] yielded an IC50 below 0.1 µM.

Turning to `N[C@@H](CC(=O)N1CC(n2nccc2C2CC2)C1)Cc1cc(F)c(F)cc1F` [Example 56, (R)-3-amino-1-[3-(5-cyclopropyl-pyrazol-1-yl)-azetidin-1-yl]-4-(2,4,5-trifluoro-phenyl)-butan-1-one], the IC50 is below 0.1 µM.

In turn, `CS(=O)(=O)c1cccc(-c2noc([C@@H]3CCCN3C(=O)C[C@H](N)Cc3ccccc3F)n2)c1` [Example 9, (R)-3-Amino-1-{(S)-2-[3-(3-methanesulphonyl-phenyl)-[1,2,4]oxadiazol-5-yl)-pyrrolidin-1-yl}-4-(2-fluoro-phenyl)-butan-1-one trifluoracetic acid salt] registered an IC50 below 0.1 µM.

For the compound `N[C@@H](CC(=O)N1CCC[C@@H]1c1nc(-c2cccc(F)c2)no1)Cc1ccccc1F` [Example 30, (R)-3-Amino-1-{(R)-2-[3-(3-fluoro-phenyl) [1,2,4]oxadiazol-5-yl)-pyrrolidin-1-yl}-4-(2-fluoro-phenyl)-butan-1-one hydrochloride], the IC50 was 0.101 to 1 µM.

With `CS(=O)(=O)c1ccc(-c2noc([C@@H]3CCCN3C(=O)C[C@H](N)Cc3ccccc3F)n2)cc1` [Example 4, (R)-3-Amino-4-(2-fluoro-phenyl)-1-{(S)-2-[3-(4-methanesulphonyl-phenyl)[1,2,4]oxadiazol-5-yl]-pyrrolidin-1-yl}-butan-1-one hydrochloride], the IC50 was below 0.1 µM.

Compound `CS(=O)(=O)c1ccc(-c2noc([C@H]3CCCN3C(=O)C[C@H](N)Cc3ccccc3F)n2)cc1` [Example 31, (R)-3-Amino-4-(2-fluoro-phenyl)-1-{(R)-2-[3-(4-methanesulphonyl-phenyl) [1,2,4]oxadiazol-5-yl]-pyrrolidin-1-yl}-butan-1-one hydrochloride] had an IC50 below 0.1 µM.

On to `N[C@@H](CC(=O)N1CCC[C@H]1c1nnc(-c2ccccc2)o1)Cc1ccccc1F` [Example 46, formate salt], for which the IC50 was in the range of 0.101 to 1 µM.

For `N[C@@H](CC(=O)N1CCC[C@H]1c1ccn(-c2ccccc2)n1)Cc1ccccc1F` [Example 47, formate salt], the IC50 was in the range of 0.101 to 1 µM.

In the case of `N[C@@H](CC(=O)N1CC(n2ccc(C(F)(F)F)n2)C1)Cc1cc(F)c(F)cc1F` [Example 53, (3R)-3-Amino-1-[3-(3-trifluoromethyl-pyrazol-1-yl)-azetidin-1-yl]-4-(2,4,5-trifluorophenyl)-butan-1-one], the IC50 was below 0.1 µM.

`N[C@@H](CC(=O)N1CCC[C@H]1c1cn(-c2ccccc2)nn1)Cc1ccccc1F` [Example 42, formate salt] displayed an IC50 of 0.101 to 1 µM.

Take `CC(C)(C)c1noc([C@@H]2CCN2C(=O)C[C@H](N)Cc2cc(F)c(F)cc2F)n1` [Example 49, (R)-3-Amino-1-[(S)-2-(3-tert-butyl-[1,2,4]oxadiazol-5-yl)-azetidin-1-yl]-4-(2,4,5-trifluorophenyl)-butan-1-one formate salt]: the IC50 was below 0.1 µM.

For `N[C@@H](CC(=O)N1CC(n2nccc2C(F)(F)F)C1)Cc1cc(F)c(F)cc1F` [Example 54, (3R)-3-amino-1-[3-(5-trifluoromethyl-pyrazol-1-yl)azetidin-1-yl]-4-(2,4,5-trifluoro-phenyl)-butan-1-one], the IC50 is below 0.1 µM.

`N[C@@H](CC(=O)N1CCC[C@H]1c1nc(C2CCC2)no1)Cc1cc(F)c(F)cc1F` [Example 15, (R)-3-Amino-1-[(S)-2-(3-cyclobutyl-[1,2,4]oxadiazol-5-yl)-pyrrolidin-1-yl]-4-(2,4,5-trifluoro-phenyl)-butan-1-one formate salt] came in with a half-maximal inhibitory concentration (IC50) below 0.1 µM.

As to `N[C@@H](CC(=O)N1CCC[C@H]1c1ncc(-c2ccccc2)[nH]1)Cc1ccccc1F` [Example 41, formate salt], the IC50 lay within 0.101 to 1 µM.

Consider `N[C@@H](CC(=O)N1CC(n2ccc(C3CC3)n2)C1)Cc1cc(F)c(F)cc1F` [Example 55, (R)-3-Amino-1-[3-(3-cyclopropyl-pyrazol-1-yl)-azetidin-1-yl]-4-(2,4,5-trifluoro-phenyl)butan-1-one], for which the IC50 is below 0.1 µM.

For the compound `N[C@@H](CC(=O)N1CCC[C@H]1c1ncn(-c2ccccc2)n1)Cc1ccccc1F` [Example 43, formate salt], the IC50 is below 0.1 µM.

As for `N[C@@H](CC(=O)N1CCC[C@@H]1c1nc(-c2cccc(Cl)c2)no1)Cc1ccccc1F` [Example 29, (R)-3-Amino-1-{(R)-2-[3-(3-chloro-phenyl) [1,2,4]oxadiazol-5-yl)-pyrrolidin-1-yl}-4-(2-fluoro-phenyl)-butan-1-one hydrochloride], the IC50 is 0.101 to 1 µM.

`N[C@@H](CC(=O)N1CCC[C@@H]1c1nc(-c2ccccc2)no1)Cc1ccccc1F` [Example 28, (R)-3-Amino-4-(2-fluoro-phenyl)-1-[(R)-2-(3-phenyl-[1,2,4]oxadiazol-5-yl)-pyrrolidin-1-yl]-butan-1-one hydrochloride]: the IC50 lay in the range of 0.101 to 1 µM.

In turn, `CC(C)(C)n1cnc([C@@H]2CCCN2C(=O)C[C@H](N)Cc2cc(F)c(F)cc2F)n1` [Example 48] came in with a 50% inhibitory concentration (IC50) below 0.1 µM.

The compound `N[C@@H](CC(=O)N1CCC[C@H]1c1nc(-c2cc(F)cc(F)c2)no1)Cc1ccccc1F` [Example 7, (R)-3-Amino-1-{(S)-2-[3-(3,5-difluoro-phenyl)-[1,2,4]oxadiazol-5-yl)-pyrrolidin-1-yl}-4-(2-fluoro-phenyl)-butan-1-one trifluoracetic acid salt] had an IC50 below 0.1 µM.

With `N[C@@H](CC(=O)N1CCC[C@H]1c1nc2cc(Cl)ccc2[nH]1)Cc1ccccc1F` [Example 40, (R)-3-Amino-1-[(S)-2-(5-chloro-1H-benzoimidazol-2-yl)-pyrrolidin-1-yl]-4-(2-fluorophenyl)-butan-1-one trifluoroacetic acid salt], the IC50 was below 0.1 µM.

In turn, `N[C@@H](CC(=O)N1CCC[C@H]1c1nc(-c2cccc(F)c2)no1)Cc1cccc(Cl)c1` [Example 6, (R)-3-Amino-4-(3-chloro-phenyl)-1-{(S)-2-[3-(3-fluoro-phenyl)-[1,2,4]oxadiazol-5-yl]-pyrrolidin-1-yl}-butan-1-one trifluoroacetic acid salt] had an IC50 below 0.1 µM.

Take `COCC(C)(C)c1noc([C@@H]2CCCN2C(=O)C[C@H](N)Cc2cc(F)c(F)cc2F)n1` [Example 24, (R)-3-Amino-1-{(S)-2-[3-(2-methoxy-1,1-dimethyl-ethyl)-[1,2,4]oxadiazol-5-yl]-pyrrolidin-1-yl}-4-(2,4,5-trifluoro-phenyl)-butan-1-one formate salt]: the IC50 is below 0.1 µM.

Consider `N[C@@H](CC(=O)N1CC(N2CCN(c3ccccn3)CC2)C1)Cc1ccccc1F` [Example 51, (3R)-3-Amino-4-(2-fluoro-phenyl)-1-[3-(4-pyridin-2-yl-piperazin-1-yl)-azetidin-1-yl]-butan-1-one], for which the IC50 lay in the range of 1 to 2 µM.

In turn, `N[C@@H](CC(=O)N1CCC[C@H]1c1nc(C2CC2)no1)Cc1ccccc1F` [Example 11, (R)-3-Amino-1-[(S)-2-(3-cyclopropyl-[1,2,4]oxadiazol-5-yl)-pyrrolidin-1-yl]-4-(2-fluorophenyl)-butan-1-one trifluoracetic acid salt] displayed an IC50 below 0.1 µM.

As to `N[C@@H](CC(=O)N1CC(N2CCC(C(F)(F)F)CC2)C1)Cc1ccccc1F` [Example 50, (3R)-3-Amino-4-(2-fluoro-phenyl)-1-[3-(4-trifluoromethyl-piperidin-1-yl)-azetidin-1-yl]-butan-1-one], the IC50 fell in the range of 1 to 2 µM.

In turn, `N[C@@H](CC(=O)N1CCC[C@H]1c1nc(-c2cccc(Cl)c2)no1)Cc1ccccc1F` [Example 2, (R)-3-Amino-1-{(S)-2-[3-(3-chloro-phenyl)[1,2,4]oxadiazol-5-yl)-pyrrolidin-1-yl}-4-(2-fluoro-phenyl)-butan-1-one hydrochloride] gave an IC50 below 0.1 µM.

Turning to `N[C@@H](CC(=O)N1CC(n2cccn2)C1)Cc1ccccc1F` [Example 52, (3R)-3-Amino-4-(2-fluoro-phenyl)-1-(3-pyrazol-1-yl-azetidin-1-yl)-butan-1-one], the IC50 lay in the range of 0.101 to 1 µM.
